The subject of experiment [1] is human NSCLC cells such as A549, H1975 and H3122. Put plainly: MTT assay, human NSCLC cells (summary statement). In kind it is cell-based. Particulars: read-out: half maximum concentration (IC50) for growth inhibition. The source says:
3,3′-Disclenodipropionic acid-D8 (D-DSePA, chemical structure shown in FIG. 1) was synthesized by reacting freshly prepared sodium selenide (Na2Se2) and 3-bromopropionic acid-D4 in D2O solvent with 42% yield. The synthesized D-DSePA was purified and characterized by NMR spectroscopy and mass spectrometry. The molecular structure of D-DSePA has been established by single-crystal X-ray diffraction analysis. The treatment of D-DSePA and un-deuterated DSePA inhibited the growth of human NSCLC cells such as A549, H1975 and H3122 with half maximum concentration (IC50) in the range of 5-50 μM by MTT assay. […] Finally, at identical treatment concentration, D-DSePA offered better radioprotection to non-cancerous WI38 cells with a dose modification factor (DMF) of 1.16±0.05 as compared to un-deuterated DScPA with DMF of 1.12±0.03.
(§1) MTT Assay—To evaluate the anti-proliferative effect of D-DScPA and DScPA, Cells (˜5×10^3) suspended in 100 μl of complete culture medium were seeded in each well of 96 well plates. […] The percentage (%) cytotoxicity was calculated from the decrease in absorbance at 570 nm of treated groups as compared to that of control group. […] The therapeutic index was calculated by normalizing the IC50 concentration of D-DSePA/DSePA in non-cancerous cells to that in cancerous cells.
Background: Tetrazolium dyes change colour on reduction, which living cells bring about.

A further experiment has as its system H3122 cells. Put plainly: MTT assay, anti-proliferative effect in H3122 cells. Particulars: Homo sapiens, NCI-H3122, 48 h treatment, read-out: IC50 to inhibit cell proliferation. Format: cell-based, human. Here is the method: (§2) Therefore, D-DSePA was compared with un-deuterated DSePA for its anticancer activity in A549, H1975 and H3122 cell lines which are representative of NSCLC. For this, above cells were treated with the varying concentrations (0.1-100 μM) of DSePA/D-DSePA for 48 h and the cell viability was determined by MTT assay (FIG. 9A-C). The plot of percent (%) cytotoxicity (100-% viability) versus the concentration of DSePA/D-DSePA was used to estimate the half maximum concentration (IC50) of above compounds to inhibit the proliferation of cells. […] Employing these values, the therapeutic index (IC50 in normal lung cell/IC50 in lung cancer cell) of DSePA and D-DSePA in different pairs of normal versus cancerous cells (viz., A549/WI-38, A549/WI-26 VA4, H1975/WI-38, H1975/WI-26 VA4, H3122/WI-38 and H3122/WI-26 VA4) was calculated (Table-3). […]
as §1

The next experiment concerns WI-38 cells. Put plainly: MTT assay, toxicity in non-cancerous lung fibroblast WI-38 cells. In kind it is cell-based, human. Particulars: Homo sapiens, WI-38, WI38 cells, 48 h post treatment, read-out: IC50 for inhibiting the cell proliferation.
Text: as §2, with “For this, above cells were treated with the varying concentrations (0.1-100 μM) of DSePA/D-DSePA for 48 h and the cell viability was determined by MTT assay (FIG. 9A-C).” left out, “cells. […] Similarly, the toxicity of DSePA/D-DSePA was studied in non-cancerous lung fibroblast cells, WI-38 and WI-26 VA4 in the concentration range of 0.1 to 1000 μM at 48 h post treatment by MTT assay (FIG. 9D and 9E).” for “cells.”
as §1

For the compound `O=C(O)CC[Se][Se]CCC(=O)O` [DSePA, 3,3′-diselenodipropionic acid], the IC50 in experiment [1] was 5 to 50 µM; in the experiment on H3122 cells, 21.5 ± 1.2 µM; with WI-38 cells it was 171 ± 2.2 µM.

The record behind these values is US20240208901A1, “Deuterated 3,3'-Diselenodipropionic Acid (DSePA) and Its Use as an Anticancer or Radioprotective Agent” (Secretary, Department of Atomic Energy, priority 2022, published 2024).
